In BindingDB's records for doi:10.1021/jm00008a012 (University of Minnesota, 1995):

Columns and labels:
[1] = Tested for binding affinity against delta1 opioid receptor using [3H]-DPDPE as a radioligand in the guinea pig brain membranes.
[2] = Tested for binding affinity against delta2 opioid receptor using [3H]DSLET as a radioligand in the guinea pig brain membranes.

Row | Compound | Ki [1] | Ki [2]
1 | O=C(CBr)Nc1cccc(Cn2c3c(c4ccccc42)C[C@@]2(O)C4Cc5ccc(O)c6c5C2(CCN4CC2CC2)[C@H]3O6)c1 (stereo partly drawn) [1N-{3-[22-cyclopropylmethyl-2,16-dihydroxy-14-oxa-11,22-diazaheptacyclo[13.9.1.01,13.02,21.04,12.05,10.019,25]pentacosa-4(12),5(10),6,8,15,17,19(25)-heptaen-11-ylmethyl]phenyl}-2-bromoacetamide] | 0.019 nM | 0.038 nM
2 | Oc1ccc2c3c1O[C@H]1c4c(c5ccccc5n4Cc4ccccc4N=C=S)C[C@@]4(O)C(C2)N(CC2CC2)CCC314 (stereo partly drawn) [22-cyclopropylmethyl-11-(2-isothiocyanatobenzyl)-14-oxa-11,22-diazaheptacyclo[13.9.1.01,13.02,21.04,12.05,10.019,25]pentacosa-4(12),5(10),6,8,15,17,19(25)-heptaene-2,16-diol] | 2 nM | 3.6 nM
3 | Oc1ccc2c3c1O[C@H]1c4c(c5ccccc5n4Cc4cccc(N=C=S)c4)C[C@@]4(O)C(C2)N(CC2CC2)CCC314 (stereo partly drawn) [22-cyclopropylmethyl-11-(3-isothiocyanatobenzyl)-14-oxa-11,22-diazaheptacyclo[13.9.1.01,13.02,21.04,12.05,10.019,25]pentacosa-4(12),5(10),6,8,15,17,19(25)-heptaene-2,16-diol] | 4.2 nM | 7 nM
4 | Oc1ccc2c3c1O[C@H]1c4c(c5ccccc5n4Cc4ccc(N=C=S)cc4)C[C@@]4(O)C(C2)N(CC2CC2)CCC314 (stereo partly drawn) [22-cyclopropylmethyl-11-(4-isothiocyanatobenzyl)-14-oxa-11,22-diazaheptacyclo[13.9.1.01,13.02,21.04,12.05,10.019,25]pentacosa-4(12),5(10),6,8,15,17,19(25)-heptaene-2,16-diol] | 5.3 nM | 5 nM
